Five substances from patent publication US8193384B2, “Polymer-bound phosphitylating reagents for the synthesis of organophosphorus compounds” (priority 2005, dated 2012) can be followed below.

Series [1] relates to complementary chains of modified and unmodified ODNs. Briefly: Thermal denaturation studies (UV melting, Tm) of ODN duplexes. The note with it: for Tm: modified oligomer bound to its complementary unmodified oligomer. It counts as binding.
Series [2] has as its system mismatched 12-mer modified or unmodified ODNs of 3′-d(CCCCCCCCCCCC). Briefly: Base-discriminating properties: UV melting with mismatched ODNs. It counts as binding. The note with it: with mismatched 12-mer modified or unmodified 3′-d(CCCCCCCCCCCC).

The Tm is the temperature at which the thermal transition is half complete. For the substance “Modified d(AAAAAAAAAAAA) (SEQ ID NO: 1) Containing Diphosphodiester Internucleotide Linkage (DNA, backbone not given here; contains diphosphodiester internucleotide linkage(s), further chemistry not fully specified) [Compound 13]”, in series [1], the Tm came to 39.7 °C. The melting transition entry in series [2] was “no melting transition was observed”.
On to “Modified d(ATATATATATAT) (SEQ ID NO: 5) Containing Diphosphodiester Internucleotide Linkage (DNA, backbone not given here; contains a diphosphodiester internucleotide linkage) [Compound 17]”, for which the ΔTm result in series [1] was “+1.8 °C”.
Regarding “Modified d(GGGGGGGGGGGG) (SEQ ID NO: 4) Containing Diphosphodiester Internucleotide Linkage [Compound 16]”, in series [1], the “binding affinity towards modified 3′-d(CCCCCCCCCCCC) compared with unmodified 3′-d(CCCCCCCCCCCC)” value is reported as “higher binding affinity”.
With “Modified d(TATATATATATA) (SEQ ID NO: 6) Containing Diphosphodiester Internucleotide Linkage (DNA, backbone not given here; contains a diphosphodiester internucleotide linkage) [Compound 18]”, the ΔTm entry in series [1] was “+3.2 °C”.
Consider “Modified d(TTTTTTTTTTTT) (SEQ ID NO: 2) Containing Diphosphodiester Internucleotide Linkage (diphosphodiester internucleotide linkage) [Compound 14]”, for which the Tm in series [1] was determined as 39.5 °C.
